# Assay results from PubChem BioAssay (NCI).
#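 How tested: cells in 96-well plates exposed to compound for 48 hours at five concentrations. At the GI50, growth is halved. TGI marks complete inhibition of growth.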
# Assays:
# Experiment in all cases: NCI anticancer screen, dose series, 48 h
# CAKI-1 renal = test system: CAKI-1 renal
# MOLT-4 leukemia = test system: MOLT-4 leukemia
# OVCAR-8 ovarian = test system: OVCAR-8 ovarian
# NCI/ADR-RES ovarian = test system: NCI/ADR-RES ovarian
# CCRF-CEM leukemia = test system: CCRF-CEM leukemia
# OVCAR-5 ovarian = test system: OVCAR-5 ovarian
# K-562 leukemia = test system: K-562 leukemia
# IGROV1 ovarian = test system: IGROV1 ovarian
# OVCAR-4 ovarian = test system: OVCAR-4 ovarian
# COLO 205 colon = test system: COLO 205 colon
# SN12C renal = test system: SN12C renal
# RPMI-8226 leukemia = test system: RPMI-8226 leukemia
# MDA-N = test system: MDA-N
# UACC-62 melanoma = test system: UACC-62 melanoma
# HCT-15 colon = test system: HCT-15 colon
# SR leukemia = test system: SR leukemia
# 786-0 renal = test system: 786-0 renal
# OVCAR-3 ovarian = test system: OVCAR-3 ovarian
# PC-3 prostate = test system: PC-3 prostate
# HOP-92 NSCLC = test system: HOP-92 NSCLC
# NCI-H522 lung = test system: NCI-H522 lung
# SW-620 colon = test system: SW-620 colon
# HT29 colon = test system: HT29 colon
# SF-268 CNS = test system: SF-268 CNS
# HCC-2998 colon = test system: HCC-2998 colon
# LOX IMVI melanoma = test system: LOX IMVI melanoma
# SNB-19 CNS = test system: SNB-19 CNS
# DU-145 prostate = test system: DU-145 prostate
# SK-MEL-28 melanoma = test system: SK-MEL-28 melanoma
# MDA-MB-435 = test system: MDA-MB-435
# U251 CNS = test system: U251 CNS
# SNB-75 CNS = test system: SNB-75 CNS
# A498 renal = test system: A498 renal
# UACC-257 melanoma = test system: UACC-257 melanoma
# HCT-116 colon = test system: HCT-116 colon
# HOP-62 NSCLC = test system: HOP-62 NSCLC
# MALME-3M melanoma = test system: MALME-3M melanoma
# ACHN renal = test system: ACHN renal
# SK-MEL-2 melanoma = test system: SK-MEL-2 melanoma
# M14 melanoma = test system: M14 melanoma
# MDA-MB-231 breast = test system: MDA-MB-231 breast
# BT-549 breast = test system: BT-549 breast
# EKVX NSCLC = test system: EKVX NSCLC
# SF-295 CNS = test system: SF-295 CNS
# A549 NSCLC = test system: A549 NSCLC
# SF-539 CNS = test system: SF-539 CNS
# SK-MEL-5 melanoma = test system: SK-MEL-5 melanoma
# HL-60(TB) leukemia = test system: HL-60(TB) leukemia
# TK-10 renal = test system: TK-10 renal
# UO-31 renal = test system: UO-31 renal
# KM12 colon = test system: KM12 colon
# NCI-H460 lung = test system: NCI-H460 lung
# NCI-H23 lung = test system: NCI-H23 lung
# HS 578T breast = test system: HS 578T breast
structure (smiles),measurement,setting,value
COc1cc(CCN)c2c(c1OC)SSSSS2,GI50,CAKI-1 renal,503 nM
same,TGI,CAKI-1 renal,1110 nM
same,GI50,MOLT-4 leukemia,64.6 nM
same,TGI,MOLT-4 leukemia,> 100000 nM
same,GI50,OVCAR-8 ovarian,1220 nM
same,TGI,OVCAR-8 ovarian,2710 nM
same,GI50,NCI/ADR-RES ovarian,1630 nM
same,TGI,NCI/ADR-RES ovarian,3730 nM
same,GI50,CCRF-CEM leukemia,395 nM
same,GI50,OVCAR-5 ovarian,591 nM
same,TGI,OVCAR-5 ovarian,1480 nM
same,GI50,K-562 leukemia,629 nM
same,TGI,K-562 leukemia,> 100000 nM
same,GI50,IGROV1 ovarian,336 nM
same,TGI,IGROV1 ovarian,1550 nM
same,GI50,OVCAR-4 ovarian,1050 nM
same,TGI,OVCAR-4 ovarian,2510 nM
same,GI50,COLO 205 colon,18.4 nM
same,TGI,COLO 205 colon,78.3 nM
same,GI50,SN12C renal,1130 nM
same,TGI,SN12C renal,2380 nM
same,GI50,RPMI-8226 leukemia,287 nM
same,TGI,RPMI-8226 leukemia,1770 nM
same,GI50,MDA-N,706 nM
same,TGI,MDA-N,2210 nM
same,GI50,UACC-62 melanoma,1370 nM
same,TGI,UACC-62 melanoma,2970 nM
same,GI50,HCT-15 colon,319 nM
same,TGI,HCT-15 colon,1440 nM
same,GI50,SR leukemia,113 nM
same,TGI,SR leukemia,679 nM
same,GI50,786-0 renal,1040 nM
same,TGI,786-0 renal,2220 nM
same,GI50,OVCAR-3 ovarian,204 nM
same,TGI,OVCAR-3 ovarian,538 nM
same,GI50,PC-3 prostate,1590 nM
same,TGI,PC-3 prostate,2930 nM
same,GI50,HOP-92 NSCLC,1420 nM
same,TGI,HOP-92 NSCLC,2960 nM
same,GI50,NCI-H522 lung,203 nM
same,TGI,NCI-H522 lung,849 nM
same,GI50,SW-620 colon,101 nM
same,TGI,SW-620 colon,283 nM
same,GI50,HT29 colon,340 nM
same,TGI,HT29 colon,1390 nM
same,GI50,SF-268 CNS,1950 nM
same,TGI,SF-268 CNS,4760 nM
same,GI50,HCC-2998 colon,384 nM
same,TGI,HCC-2998 colon,2080 nM
same,GI50,LOX IMVI melanoma,12.7 nM
same,GI50,SNB-19 CNS,2450 nM
same,TGI,SNB-19 CNS,4720 nM
same,GI50,DU-145 prostate,276 nM
same,TGI,DU-145 prostate,1220 nM
same,GI50,SK-MEL-28 melanoma,1790 nM
same,TGI,SK-MEL-28 melanoma,3430 nM
same,GI50,MDA-MB-435,1630 nM
same,TGI,MDA-MB-435,3320 nM
same,GI50,U251 CNS,1080 nM
same,TGI,U251 CNS,2460 nM
same,GI50,SNB-75 CNS,1500 nM
same,TGI,SNB-75 CNS,2870 nM
same,GI50,A498 renal,1980 nM
same,TGI,A498 renal,3640 nM
same,GI50,UACC-257 melanoma,2580 nM
same,TGI,UACC-257 melanoma,6800 nM
same,GI50,HCT-116 colon,220 nM
same,GI50,HOP-62 NSCLC,1810 nM
same,TGI,HOP-62 NSCLC,3300 nM
same,GI50,MALME-3M melanoma,2080 nM
same,TGI,MALME-3M melanoma,4090 nM
same,GI50,ACHN renal,450 nM
same,TGI,ACHN renal,1610 nM
same,GI50,SK-MEL-2 melanoma,1100 nM
same,TGI,SK-MEL-2 melanoma,2610 nM
same,GI50,M14 melanoma,85 nM
same,TGI,M14 melanoma,676 nM
same,GI50,MDA-MB-231 breast,1490 nM
same,TGI,MDA-MB-231 breast,2920 nM
same,GI50,BT-549 breast,793 nM
same,TGI,BT-549 breast,2230 nM
same,GI50,EKVX NSCLC,1260 nM
same,TGI,EKVX NSCLC,2590 nM
same,GI50,SF-295 CNS,1790 nM
same,TGI,SF-295 CNS,3990 nM
same,GI50,A549 NSCLC,1380 nM
same,TGI,A549 NSCLC,2710 nM
same,GI50,SF-539 CNS,1250 nM
same,TGI,SF-539 CNS,2620 nM
same,GI50,SK-MEL-5 melanoma,712 nM
same,TGI,SK-MEL-5 melanoma,2230 nM
same,GI50,HL-60(TB) leukemia,1570 nM
same,TGI,HL-60(TB) leukemia,5090 nM
same,GI50,TK-10 renal,1420 nM
same,TGI,TK-10 renal,3030 nM
same,GI50,UO-31 renal,262 nM
same,TGI,UO-31 renal,1120 nM
same,GI50,KM12 colon,1640 nM
same,TGI,KM12 colon,3090 nM
same,GI50,NCI-H460 lung,767 nM
same,TGI,NCI-H460 lung,2110 nM
same,GI50,NCI-H23 lung,478 nM
same,TGI,NCI-H23 lung,1790 nM
same,GI50,HS 578T breast,2110 nM
same,TGI,HS 578T breast,5170 nM
